Data taken from patent US6534496B1, “Thermogenic composition and benzazepine thermogenics” (Takeda Chemical Industries, Inc., priority 1997, dated 2003).
Structures can show the parent of a compound that is named as a salt.

Row | Structure (SMILES) | melting point
1 | O=C(CCC1CCN(Cc2ccc(-c3ccccc3)cc2)CC1)c1ccc2c(c1)CCN(Cc1ccc(F)cc1)CC2 (as salt: hydrochloride) [Example 49, 1-[3-[(4-Fluorophenyl)methyl]-2,3,4,5-tetrahydro-1H-3-benzazepin-7-yl]-3-[1-[(4-phenylphenyl)methyl]-4-piperidinyl]-1-propanone Dihydrochloride] | 225 to 228 °C (dec.)
2 | O=C(CCC1CCNCC1)c1ccc2c(c1)CN(Cc1ccc(F)cc1)CCO2 (as salt: hydrochloride) [Example 78, 1-[4-[(4-Fluorophenyl)methyl]-2,3,4,5-tetrahydro-1,4-benzoxazepin-7-yl]-3-(4-piperidinyl)-1-propanone Dihydrochloride] | 173 to 174 °C
3 | O=C(CCC1CCN(Cc2cccc(Cl)c2)CC1)c1ccc2c(c1)CN(Cc1ccc(F)cc1)CCO2 (as salt: hydrochloride) [Example 80, 3-[1-[(3-Chlorophenyl)methyl]-4-piperidiny]-1-[4-[(4-fluorophenyl)methyl]-2,3,4,5-tetrahydro-1,4-benzoxazepin-7-yl]-1-propanone Dihydrochloride] | 224 to 225 °C
4 | O=C(CCC1CCN(Cc2cccc(F)c2)CC1)c1ccc2c(c1)CN(Cc1ccc(F)cc1)CCO2 (as salt: hydrochloride) [Example 81, 3-[1-[(3-Fluorophenyl)methyl]-4-piperidiny]-1-[4-[(4-fluorophenyl)methyl]-2,3,4,5-tetrahydro-1,4-benzoxazepin-7-yl]-1-propanone Dihydrochloride] | 228 to 231 °C
5 | O=C(CCC1CCN(Cc2ccc(C(F)(F)F)cc2)CC1)c1ccc2c(c1)CN(Cc1ccc(F)cc1)CCO2 (as salt: hydrochloride) [Example 88, 1-[4-[(4-Fluorophenyl)methyl]-2,3,4,5-tetrahydro-1,4-benzoxazepin-7-yl]-3-[1-[[4-(trifluoromethyl)phenyl]methyl]-4-piperidinyl]-1-propanone Dihydrochloride] | 234 to 237 °C
6 | COc1ccc(CN2CCc3ccc(C(=O)CCC4CCN(Cc5ccc(C(C)(C)C)cc5)CC4)cc3CC2)cc1 (as salt: hydrochloride) [Example 93, 1-[3-[(4-methbyphenyl)methyl]-2,3,4,5-tetrahydro-1H-3-benzazepin-7-yl]3-[1-[[4-(tert-butyl)phenyl]methyl]-4-piperidinyl]-1-propanone Dihydrochloride] | 241 to 244 °C (dec.)
7 | COc1ccc(CN2CCc3ccc(C(=O)CCC4CCN(Cc5ccc(Cl)c(Cl)c5)CC4)cc3CC2)cc1 (as salt: hydrochloride) [Example 96, 3-[1-[(3,4-Dichlorophenyl)methyl]-4-piperidinyl]-1-[3-[(4-methoxyphenyl)methyl]-2,3,34,5-tetrahydro-1H-3-benzazepin-7-yl]-1-propanone Dihydrochloride] | 220 to 223 °C (dec.)
8 | Cc1ccccc1CN1CCc2ccc(C(=O)CCCC3CCN(Cc4ccccc4C)CC3)cc2CC1 (as salt: hydrochloride) [Example 127, 4-[1-[(2-Methylphenyl)methyl]-4-piperidinyl]-1-[3-[(2-methylphenyl)methyl]-2,3,4,5-tetrahydro-1H-3-benzazepin-7-yl]-1-butanone Dihydrochloride] | 183 to 186 °C
9 | Cc1ccccc1CN1CCc2ccc(C(=O)CCCC3CCN(Cc4ccccc4)CC3)cc2CC1 (as salt: hydrochloride) [Example 129, 1-[3-[(2-Methylphenyl)methyl]-2,3,4,5-tetrahydro-1H-3-benzazepin-7-yl]-4-[1-(phenylmethyl)-4-piperidinyl]-1-butanone Dihydrochloride] | 191 to 194 °C
10 | Cc1ccccc1CN1CCc2ccc(C(=O)CCCC3CCN(Cc4cccc(Cl)c4)CC3)cc2CC1 (as salt: hydrochloride) [Example 130] | 180 to 183 °C
11 | COC(=O)c1cccc(CN2CCC(CCCC(=O)c3ccc4c(c3)CCN(Cc3ccccc3)CC4)CC2)c1 (as salt: hydrochloride) [Example 152, Methyl 3-[[4-[4-[3-(phenylmethyl)-2,3,4,5-tetrahydro,-1H-3-benzazepin-7-yl]-4-oxobutyl]-1-piperidinyl]methyl]benzoate Dihydrochloride] | 194 to 200 °C
12 | O=C(CCCC1CCN(Cc2cccc([N+](=O)[O-])c2)CC1)c1ccc2c(c1)CCN(Cc1ccccc1)CC2 (as salt: hydrochloride) [Example 154, 4-[1-[(3-Nitrophenyl)methyl]-4-piperidinyl-1-(3-(phenylmethyl)-2,3,4,5-tetrahydro-1H-3-benzazepin-7-yl]-1-butanone Dihydrochloride] | 239 to 244 °C (dec.)

Further lines, results first:

Row | melting point | Structure (SMILES)
13 | 223 to 225 °C | Cc1cccc(CN2CCC(CCC(=O)c3ccc4c(c3)CN(Cc3ccc(F)cc3)CCO4)CC2)c1 (as salt: hydrochloride) [Example 79, 1-[4-[(4-Fluorophenyl)methyl]-2,3,4,5-tetrahydro-1,4-benzoxazepin-7-yl]-3-[1-[(3-methylphenyl)methyl]-4-piperidinyl]-1-propanone Dihydrochloride]
14 | 216 to 219 °C | Cc1ccccc1CN1CCC(CCC(=O)c2ccc3c(c2)CN(Cc2ccc(F)cc2)CCO3)CC1 (as salt: hydrochloride) [Example 83, 1-[4-[(4-Fluorophenyl)methyl]-2,3,4,5-tetrahydro-1,4-benzoxazepin-7-yl]-3-[1-[(2-methylphenyl)methy]-4-piperidinyl]-1-propanone Dihydrochloride]
15 | 187 to 189 °C | O=C(CCC1CCN(Cc2cccc(-c3ccccc3)c2)CC1)c1ccc2c(c1)CN(Cc1ccc(F)cc1)CCO2 (as salt: hydrochloride) [Example 99, 1-[4-[(4-Fluorophenyl)methyl]-2,3,4,5-tetrahydro-1,4-benzoxazepin-7-yl]-3-[1-[(3-phenylphenyl)methyl]-4-piperidinyl]-1-propanone Ddihydrochloride]
16 | 200 to 203 °C | CCOC(=O)COc1cccc(CN2CCC(CCC(=O)c3ccc4c(c3)CN(Cc3ccc(F)cc3)CCO4)CC2)c1 (as salt: hydrochloride) [Example 103, Ethyl 2-[3-[[4-[3-[4-[(4-fluorophenyl)methyl]-2,3,4,5-tetrahydro-1,4-benzoxazepin-7-yl]-3-oxopropyl]-1-piperidinyl]methyl]phenoxy]ethanoate Dihydrochloride]
17 | 240 to 243 °C | CC(C)(C)c1ccc(CN2CCC(CCC(=O)c3ccc4c(c3)CN(Cc3ccc(F)cc3)CCO4)CC2)cc1 (as salt: hydrochloride) [Example 108, 1-[4-[(4-Fluorophenyl)methyl]-2,3,4,5-tetrahydro-4-benzoxazepin-7-yl]-3-[1-[[4-(tert-butyl)phenyl]methyl]-4-piperidinyl]-1-propanone Dihydrochloride]
18 | 146 to 148 °C | CCOC(=O)C(C)(C)c1cccc(CN2CCC(CCCC(=O)c3ccc4c(c3)CCN(Cc3ccccc3)CC4)CC2)c1 (as salt: hydrochloride) [Example 153, Ethyl 2-methyl-2-[3-[[4-[4-[3-(phenylmethyl)-2,3,4,5-tetrahydro-1H-3-benzazepin-7-yl]-4-oxobutyl]-1-piperidinyl]methyl]phenyl]propionate Dihydrochloride]
